Consider 26 molecules from ChEMBL document CHEMBL1201862, “PubChem BioAssay data set” (2004).

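Five concentrations, 48 hours, 96-well plates. At the GI50, growth is halved.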 The source made the active and inactive calls. Cut-off read from the data, not from the text of the source: active = GI50 up to about 1.1 µM and inactive = higher. Some results are limits rather than exact numbers.

Some test systems named below: DLD-1; HOP-18; XF498; SNB-78; KM-20L2; M19-MEL; LXFL 529; DMS-273; RXF 631.
Common to all, as to test: inhibition of tumour cell growth, NCI panel, 48 h

As for `COc1ccc(OC)c2c1C(=O)C(Cl)=C(Cl)C2=O`, the GI50 in the assay on DLD-1 was 3.84 µM (inactive); in the assay with HOP-18, 3.54 µM (inactive); with XF498, 1.61 µM (inactive); in the assay with SNB-78, 4.61 µM (inactive); in the assay with KM-20L2 it was 10.5 µM (inactive); in the assay with M19-MEL, 4.68 µM (inactive). Also, the GI50 was 1.95 µM (inactive) in the assay with LXFL 529 and 7.57 µM (inactive) in the assay with DMS-273.

Take `Oc1ncnc2c1sc(=S)n2-c1ccccc1`: the GI50 with DLD-1, in the assay with XF498, with SNB-78, in the assay on KM-20L2, with M19-MEL and with LXFL 529 was > 100 µM (inactive) each time. The GI50 with DMS-273 was > 100 µM (inactive).

On to `CN(C)CCCNc1ccc2ncn3c4ccccc4c(=O)c1c23`, for which the GI50 with DLD-1 was 4.94 µM (inactive); in the assay on HOP-18 it was 5.73 µM (inactive); with SNB-78, 14.2 µM (inactive); in the assay on KM-20L2 it was 7.41 µM (inactive); in the assay with M19-MEL, 12.1 µM (inactive); in the assay on RXF 631, 4.7 µM (inactive). In the assay on LXFL 529, the GI50 was 8.55 µM (inactive).

Take `CC(C)Cc1ccc(C(C)CC2=CCC(CN(C)C)C2=O)cc1` (stereo not drawn): the GI50 was 2.33 µM (inactive) in the assay with DLD-1; 18.5 µM (inactive) in the assay with HOP-18; 6.43 µM (inactive) with SNB-78; 11.4 µM (inactive) with KM-20L2; 4.11 µM (inactive) with M19-MEL; 16.6 µM (inactive) in the assay with RXF 631. The GI50 with LXFL 529 is 1.73 µM (inactive); in the assay with DMS-273 it was 4.41 µM (inactive).

As for `CC1=C(O)/C(=C/C(C)CCC/C(C)=C/C=C/C(C)CCCc2ccoc2)OC1=O` (stereo not drawn), the GI50 is 31 µM (inactive) with DLD-1; 7.08 µM (inactive) in the assay with XF498; 18.3 µM (inactive) with SNB-78; 29.6 µM (inactive) with KM-20L2; 48.3 µM (inactive) with M19-MEL; 31.8 µM (inactive) with LXFL 529. For the same molecule, the GI50 with DMS-273 was 55.3 µM (inactive).

On to `CC(C)(C)/N=C\N1CCC(C(c2ccccc2)c2ccccc2)CC1`, for which the GI50 in the assay with DLD-1 was > 100 µM (inactive); in the assay on HOP-18, 53.2 µM (inactive); in the assay on XF498, 30.8 µM (inactive); in the assay on SNB-78, 64.6 µM (inactive); in the assay on KM-20L2 it was 14.9 µM (inactive); with M19-MEL, 37.2 µM (inactive). Also, the GI50 in the assay on DMS-273 was 65.3 µM (inactive).

For `Cc1ccc(/N=N/c2c(-c3ccccc3)nn(C(=O)CC(=O)Nc3ccc(Cl)cc3)c2-c2ccccc2)cc1`, the GI50 was 83.6 µM (inactive) in the assay with DLD-1; > 100 µM (inactive) in the assay with HOP-18; 79.6 µM (inactive) with SNB-78; 63.4 µM (inactive) in the assay with KM-20L2; 59.4 µM (inactive) with RXF 631; 27.9 µM (inactive) in the assay on LXFL 529. For the same molecule, the GI50 with DMS-273 was > 100 µM (inactive).

As for `CCn1c(SC(C)C(=O)c2c(C)n(C)n(-c3ccccc3)c2=O)nc2ccccc2c1=O` (stereo not drawn), the GI50 in the assay on DLD-1, in the assay with SNB-78, in the assay with KM-20L2, in the assay with M19-MEL, in the assay with LXFL 529 and in the assay on DMS-273 was > 100 µM (inactive) each time.

Consider `CC1c2[nH]c3ccccc3c2CCN1O` (stereo not drawn), for which the GI50 in the assay on DLD-1, in the assay on HOP-18, in the assay with SNB-78, in the assay on KM-20L2, with M19-MEL and in the assay on RXF 631 was > 100 µM (inactive) in each case. Moreover, the GI50 in the assay on LXFL 529 and in the assay on DMS-273 was > 100 µM (inactive) each time.

For `CN(C)c1n/c(=N/c2ccc3c(c2)OCO3)ss1`, the GI50 in the assay with DLD-1 was 79.8 µM (inactive); in the assay with HOP-18, > 100 µM (inactive); in the assay on XF498 it was 48.5 µM (inactive); in the assay on SNB-78, 44 µM (inactive); in the assay on KM-20L2, 39.9 µM (inactive); in the assay with M19-MEL, > 100 µM (inactive). For the same molecule, the figures for the GI50 in the assay on LXFL 529 and in the assay on DMS-273 were 35.3 µM (inactive) and 66.5 µM (inactive), respectively.

Take `CSc1nc(NC2OCC(OC(C)=O)C(OC(C)=O)C2OC(C)=O)c2c(n1)OCC2=O` (stereo not drawn): the GI50 in the assay with DLD-1, with SNB-78, in the assay with KM-20L2, in the assay on M19-MEL, in the assay on LXFL 529 and in the assay with DMS-273 was > 100 µM (inactive) throughout.

Take `COC(=O)[C@H](C)[C@H]1CC[C@@](C)([C@H]2CC3C(C)(C)[C@H]4CCC(C)=C[C@H]4C[C@@]3(C)O2)OO1` (stereo partly drawn): the GI50 in the assay with DLD-1 was 12 µM (inactive); in the assay with XF498 it was 10 µM (inactive); with SNB-78, 10.8 µM (inactive); in the assay on KM-20L2, 13.4 µM (inactive); with M19-MEL, 13.2 µM (inactive); in the assay with LXFL 529, 2.03 µM (inactive). The GI50 with DMS-273 was 12.6 µM (inactive).

For the molecule `C=C1CCC2C(C)(CO)C(O)CCC2(C)C1C/C=C1/CCOC1=O` (stereo not drawn), the GI50 in the assay on DLD-1, with HOP-18, in the assay with KM-20L2, in the assay on M19-MEL, in the assay with LXFL 529 and with DMS-273 was > 100 µM (inactive) in each case.

For `NC(=O)C12CCC1C1CCCCC12N1CCOCC1` (stereo not drawn), the GI50 in the assay with DLD-1, in the assay on HOP-18, in the assay with SNB-78, in the assay with KM-20L2, in the assay on M19-MEL and with RXF 631 was > 100 µM (inactive) throughout. The GI50 in the assay on LXFL 529 is > 100 µM (inactive).

Regarding `CC1(C)CC2(S(=O)(=O)c3ccccc3)ON1CC2S(=O)(=O)c1ccccc1` (stereo not drawn), the GI50 is > 100 µM (inactive) in the assay with DLD-1; > 100 µM (inactive) in the assay on KM-20L2; > 100 µM (inactive) with M19-MEL; 76.9 µM (inactive) with LXFL 529; 53.6 µM (inactive) in the assay with DMS-273.

Take `COCc1cc2c(s1)C(=O)C1=C(C2=O)C2(C=C(Br)C(=O)C(Br)=C2)CCN1`: the GI50 with DLD-1 is 6.95 µM (inactive); in the assay on HOP-18, 15.1 µM (inactive); in the assay on XF498 it was 7.41 µM (inactive); in the assay with SNB-78, 7.59 µM (inactive); in the assay on KM-20L2, 0.184 µM (active); with M19-MEL, 1.46 µM (inactive). The GI50 with LXFL 529 is 2.72 µM (inactive); in the assay on DMS-273, 2.85 µM (inactive).

As to `CCCCCCCCCCCCCCC(C)CCC(=O)O` (stereo not drawn), the GI50 with DLD-1 is > 100 µM (inactive); with HOP-18 it was > 100 µM (inactive); in the assay on XF498 it was 59.4 µM (inactive); with SNB-78, > 100 µM (inactive); in the assay on M19-MEL it was 47.2 µM (inactive).

Regarding `C/C(=N\NC(=S)NNC(=S)N(C)c1ccccc1)c1ccccn1`, the GI50 is 0.618 µM (active) with DLD-1; 0.198 µM (active) in the assay on HOP-18; 14.1 µM (inactive) in the assay on XF498; 8.55 µM (inactive) in the assay on SNB-78; 0.547 µM (active) in the assay on M19-MEL; 0.815 µM (active) with LXFL 529. Also, the GI50 in the assay on DMS-273 is 1.46 µM (inactive).

Regarding `COC(=O)C1Cc2c(n(C)c3ccccc23)C(c2ccccc2)N1` (stereo not drawn), the GI50 was > 10 µM (inactive) with DLD-1; > 100 µM (inactive) in the assay on HOP-18; > 100 µM (inactive) in the assay on SNB-78; 57.8 µM (inactive) with KM-20L2; 45.6 µM (inactive) in the assay on M19-MEL; > 100 µM (inactive) in the assay with RXF 631. For the same molecule, the GI50 in the assay on LXFL 529 is 33.7 µM (inactive); in the assay with DMS-273, 38.8 µM (inactive).

Consider `Cc1cn2c(=O)c3ncn(C4OC(CO)C(O)C4O)c3n(C)c2n1` (stereo not drawn), for which the GI50 in the assay with DLD-1, in the assay with HOP-18, in the assay with SNB-78, in the assay with KM-20L2, in the assay on M19-MEL and with RXF 631 was > 100 µM (inactive) in each case. Moreover, the GI50 with LXFL 529 and in the assay on DMS-273 was > 100 µM (inactive) throughout.

For the molecule `CCCNc1ncnc2c1cnn2C`, the GI50 with HOP-18, in the assay with XF498, in the assay with SNB-78, in the assay with KM-20L2, in the assay on M19-MEL and with DMS-273 was > 100 µM (inactive) each time.

Turning to `O/N=C1/C(=C/c2ccc3c(c2)OCO3)CCCC1C(NO)c1ccc2c(c1)OCO2` (stereo not drawn), the GI50 in the assay on DLD-1 was 28.4 µM (inactive); in the assay on HOP-18, 18.2 µM (inactive); with XF498 it was 22.7 µM (inactive); in the assay on SNB-78, 31.3 µM (inactive); in the assay with KM-20L2, 18.2 µM (inactive); with M19-MEL, 24.8 µM (inactive). Besides, the GI50 in the assay with LXFL 529 was 20 µM (inactive); in the assay with DMS-273 it was 21.8 µM (inactive).

With `CCN(CC)CCNc1ccc2ncn3c4ccc(O)cc4c(=O)c1c23`, the GI50 with DLD-1 is 0.544 µM (active); in the assay on HOP-18 it was 5.92 µM (inactive); in the assay on XF498, 0.173 µM (active); in the assay on SNB-78, 0.541 µM (active); in the assay on KM-20L2, 1.23 µM (inactive); with M19-MEL, 1.38 µM (inactive). Further, the GI50 with LXFL 529 is 1.26 µM (inactive); in the assay on DMS-273 it was 0.0731 µM (active).

On to `CC(=O)C(CN(C)Cc1ccccc1)C(c1ccccc1)c1c(O)c2ccccc2oc1=O` (stereo not drawn), for which the GI50 in the assay with DLD-1 was > 100 µM (inactive); in the assay with SNB-78, > 100 µM (inactive); in the assay on KM-20L2 it was 55.8 µM (inactive); in the assay on M19-MEL, > 100 µM (inactive); in the assay on LXFL 529, > 100 µM (inactive); with DMS-273, > 100 µM (inactive).

For the molecule `CC1C[C@H](C)CC(C(O)CC2CC(=O)N(Cc3ccccc3)C(=O)C2)C1O` (stereo partly drawn), the GI50 with DLD-1, with HOP-18, in the assay with SNB-78, in the assay on KM-20L2, in the assay on M19-MEL and in the assay on LXFL 529 was > 100 µM (inactive) in each case. Further, the GI50 with DMS-273 is > 100 µM (inactive).

Consider `C[N+](C)(C)CC1CCCC(C[N+](C)(C)C)C1=NO` (stereo not drawn), for which the GI50 with DLD-1, in the assay with HOP-18, with XF498, with SNB-78, in the assay with KM-20L2 and with M19-MEL was > 100 µM (inactive) throughout. The GI50 with LXFL 529 and in the assay with DMS-273 was > 100 µM (inactive) throughout.
